Legend:
[1] = target: Sodium channel protein type 2 subunit alpha (Homo sapiens, UniProt Q99250); assay: Inhibition of human Nav1.2 channel expressed in Xenopus oocytes by two-intracellular microelectrode voltage clamp method; assay type: cell-based
[2] = target: Sodium-dependent serotonin transporter (Homo sapiens, UniProt P31645); assay: Inhibition of human SERT expressed in HEK293 cells preincubated for 30 mins followed by fluorescent substrate addition measured after 30 mins by plate reader analysis; assay type: cell-based
Sequence of Sodium-dependent serotonin transporter (P31645 whole entry): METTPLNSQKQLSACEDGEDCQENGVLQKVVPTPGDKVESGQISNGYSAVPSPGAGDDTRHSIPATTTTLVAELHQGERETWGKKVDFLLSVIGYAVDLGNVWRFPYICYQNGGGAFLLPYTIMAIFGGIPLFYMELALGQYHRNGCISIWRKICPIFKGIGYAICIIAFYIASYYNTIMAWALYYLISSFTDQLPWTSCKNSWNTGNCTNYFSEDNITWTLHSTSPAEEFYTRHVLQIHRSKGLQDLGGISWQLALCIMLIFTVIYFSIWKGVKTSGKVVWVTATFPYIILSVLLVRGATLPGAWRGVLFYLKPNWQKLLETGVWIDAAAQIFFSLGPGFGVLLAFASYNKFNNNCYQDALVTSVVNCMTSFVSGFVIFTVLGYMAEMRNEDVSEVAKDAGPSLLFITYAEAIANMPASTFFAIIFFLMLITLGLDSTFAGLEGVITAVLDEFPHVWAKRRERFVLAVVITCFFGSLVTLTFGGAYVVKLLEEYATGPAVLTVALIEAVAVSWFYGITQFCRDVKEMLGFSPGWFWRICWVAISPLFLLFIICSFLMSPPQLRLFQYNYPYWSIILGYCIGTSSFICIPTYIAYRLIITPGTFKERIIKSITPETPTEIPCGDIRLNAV

[3] = Stability in rhesus monkey plasma assessed as parent compound remaining at 24 hrs by LC-MS analysis; assay type: ADME, cell-free, Macaca mulatta; conditions: read-out: Stability
[4] = Stability in human plasma assessed as parent compound remaining at 24 hrs by LC-MS analysis; assay type: ADME, cell-free; conditions: read-out: Stability
[5] = target: Beta-2 adrenergic receptor (Homo sapiens, UniProt P07550)
Sequence of Beta-2 adrenergic receptor (P07550 whole entry): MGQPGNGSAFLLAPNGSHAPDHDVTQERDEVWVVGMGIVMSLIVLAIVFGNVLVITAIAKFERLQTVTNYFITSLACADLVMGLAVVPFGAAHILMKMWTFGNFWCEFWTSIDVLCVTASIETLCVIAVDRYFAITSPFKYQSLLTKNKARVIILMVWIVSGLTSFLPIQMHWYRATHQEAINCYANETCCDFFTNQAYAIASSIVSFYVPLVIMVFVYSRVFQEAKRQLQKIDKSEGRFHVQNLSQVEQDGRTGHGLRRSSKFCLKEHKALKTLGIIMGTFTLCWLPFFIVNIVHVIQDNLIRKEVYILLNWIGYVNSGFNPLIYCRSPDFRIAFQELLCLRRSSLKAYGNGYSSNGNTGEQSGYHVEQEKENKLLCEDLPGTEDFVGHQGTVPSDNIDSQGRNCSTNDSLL
Description: Displacement of [125]I-cyanopindolol from human recombinant beta2 adrenergic receptor after 1 hr by scintillation counting method

[6] = target: T1, Beta-3 adrenergic receptor (Homo sapiens, UniProt P13945); assay: Agonist activity at human beta3 adrenergic receptor expressed in CHO cells assessed as accumulation of cAMP after 30 mins by TR-FRET assay relative to (R)-(-)-isoproterenol; assay type: functional, cell-based
Target sequence in this assay (P13945 whole entry, looked up): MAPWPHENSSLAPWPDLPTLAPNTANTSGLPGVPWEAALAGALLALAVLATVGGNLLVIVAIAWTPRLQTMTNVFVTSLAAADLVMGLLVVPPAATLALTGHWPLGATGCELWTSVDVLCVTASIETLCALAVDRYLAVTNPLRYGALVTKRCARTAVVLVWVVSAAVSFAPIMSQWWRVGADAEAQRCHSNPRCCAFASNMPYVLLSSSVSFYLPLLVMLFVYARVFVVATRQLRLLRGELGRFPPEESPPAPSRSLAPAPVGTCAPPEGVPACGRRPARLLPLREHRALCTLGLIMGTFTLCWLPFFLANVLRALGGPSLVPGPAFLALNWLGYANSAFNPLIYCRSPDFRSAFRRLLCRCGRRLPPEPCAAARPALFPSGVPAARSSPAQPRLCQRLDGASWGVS

[7] = Half life in rat at 1 mg/kg, iv or 2 mg/kg, po; assay type: ADME, organism-based; conditions: in vivo
[8] = target: Beta-1 adrenergic receptor (Homo sapiens, UniProt P08588)
Sequence of Beta-1 adrenergic receptor (P08588 whole entry): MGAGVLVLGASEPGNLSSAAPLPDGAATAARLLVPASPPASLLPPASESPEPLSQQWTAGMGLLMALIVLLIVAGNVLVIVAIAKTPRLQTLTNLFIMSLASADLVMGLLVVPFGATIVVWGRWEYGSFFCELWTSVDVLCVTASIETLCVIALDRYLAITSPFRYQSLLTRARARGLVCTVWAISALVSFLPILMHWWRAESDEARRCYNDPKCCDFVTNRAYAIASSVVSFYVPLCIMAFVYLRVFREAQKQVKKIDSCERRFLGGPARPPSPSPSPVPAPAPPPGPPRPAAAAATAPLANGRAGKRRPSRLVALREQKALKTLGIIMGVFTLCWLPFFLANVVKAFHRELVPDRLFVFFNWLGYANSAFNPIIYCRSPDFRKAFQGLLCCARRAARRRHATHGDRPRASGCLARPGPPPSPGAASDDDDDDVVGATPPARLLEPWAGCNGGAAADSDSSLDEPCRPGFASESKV
Description: Displacement of [125]I-cyanopindolol from recombinant human beta1 adrenergic receptor after 1 hr by scintillation counting method

[9] = Intrinsic clearance in rhesus monkey liver microsomes; assay type: ADME, Macaca mulatta; conditions: read-out: CLH
[10] = target: Voltage-dependent L-type calcium channel subunit alpha-1C (Homo sapiens, UniProt Q13936); assay: Displacement of [3H]-diltiazem from human Cav1.2 channel
[11] = Stability in rat plasma assessed as parent compound remaining at 24 hrs by LC-MS analysis; assay type: ADME, cell-free; conditions: read-out: Stability
[12] = Half life in dog at 0.5 mg/kg, iv or 2 mg/kg, po; assay type: ADME, organism-based, Canis lupus familiaris; conditions: in vivo
[13] = target: T1, Beta-3 adrenergic receptor; assay: Agonist activity at human beta3 adrenergic receptor expressed in CHO cells assessed as accumulation of cAMP after 30 mins by TR-FRET assay; assay type: functional, cell-based
Target sequence in this assay (P13945 whole entry): as the sequence (P13945 whole entry, looked up) above

[14] = Stability in dog plasma assessed as parent compound remaining at 24 hrs by LC-MS analysis; assay type: ADME, cell-free, Canis lupus familiaris; conditions: read-out: Stability
Canis familiaris = assay: Dose normalized total AUC in dog at 2 mg/kg, po; assay type: ADME, organism-based, Canis lupus familiaris; conditions: in vivo
[15] = Intrinsic clearance in dog liver microsomes; assay type: ADME, Canis lupus familiaris; conditions: read-out: CLH
Rattus norvegicus = assay: Dose normalized total AUC in rat at 2 mg/kg, po; assay type: ADME, organism-based; conditions: in vivo
[16] = Oral bioavailability in rat at 2 mg/kg; assay type: ADME, organism-based; conditions: in vivo
[17] = target: Sodium-dependent dopamine transporter (Homo sapiens, UniProt Q01959); assay: Inhibition of human dopamine transporter
Sequence of Sodium-dependent dopamine transporter (Q01959 whole entry): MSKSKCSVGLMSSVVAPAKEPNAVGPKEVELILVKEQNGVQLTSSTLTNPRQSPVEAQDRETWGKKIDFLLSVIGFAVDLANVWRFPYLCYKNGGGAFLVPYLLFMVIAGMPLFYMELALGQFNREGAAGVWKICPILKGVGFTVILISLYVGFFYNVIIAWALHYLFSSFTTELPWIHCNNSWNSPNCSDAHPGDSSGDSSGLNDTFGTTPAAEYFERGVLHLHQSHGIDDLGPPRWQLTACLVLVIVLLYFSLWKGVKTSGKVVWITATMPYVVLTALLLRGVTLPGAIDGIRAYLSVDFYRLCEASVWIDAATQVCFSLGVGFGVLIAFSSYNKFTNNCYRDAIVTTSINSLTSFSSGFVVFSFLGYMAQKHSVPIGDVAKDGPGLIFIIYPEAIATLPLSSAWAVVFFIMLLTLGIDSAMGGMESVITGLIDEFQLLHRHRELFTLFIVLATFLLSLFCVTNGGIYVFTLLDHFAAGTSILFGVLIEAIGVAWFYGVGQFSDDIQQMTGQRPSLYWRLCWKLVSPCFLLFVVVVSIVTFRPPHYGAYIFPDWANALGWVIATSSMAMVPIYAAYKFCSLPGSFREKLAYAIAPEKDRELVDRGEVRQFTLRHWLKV

[18] = Plasma clearance in dog at 0.5 mg/kg, iv or 2 mg/kg, po; assay type: ADME, organism-based, Canis lupus familiaris
[19] = Intrinsic clearance in human liver microsomes; assay type: ADME; conditions: read-out: CLH
[20] = Oral bioavailability in dog at 2 mg/kg; assay type: ADME, organism-based, Canis lupus familiaris; conditions: in vivo
[21] = Induction of phospholidosis in human HepG2 cells incubated overnight by […] in presence of fluorescent labeled phospholipid probe NBD-PE; assay type: cell-based; conditions: read-out: A50
[22] = Plasma clearance in rat at 1 mg/kg, iv or 2 mg/kg, po; assay type: ADME, organism-based
[23] = Intrinsic clearance in rat liver microsomes; assay type: ADME; conditions: read-out: CLH

Sequence of Sodium channel protein type 2 subunit alpha (Q99250 whole entry, looked up): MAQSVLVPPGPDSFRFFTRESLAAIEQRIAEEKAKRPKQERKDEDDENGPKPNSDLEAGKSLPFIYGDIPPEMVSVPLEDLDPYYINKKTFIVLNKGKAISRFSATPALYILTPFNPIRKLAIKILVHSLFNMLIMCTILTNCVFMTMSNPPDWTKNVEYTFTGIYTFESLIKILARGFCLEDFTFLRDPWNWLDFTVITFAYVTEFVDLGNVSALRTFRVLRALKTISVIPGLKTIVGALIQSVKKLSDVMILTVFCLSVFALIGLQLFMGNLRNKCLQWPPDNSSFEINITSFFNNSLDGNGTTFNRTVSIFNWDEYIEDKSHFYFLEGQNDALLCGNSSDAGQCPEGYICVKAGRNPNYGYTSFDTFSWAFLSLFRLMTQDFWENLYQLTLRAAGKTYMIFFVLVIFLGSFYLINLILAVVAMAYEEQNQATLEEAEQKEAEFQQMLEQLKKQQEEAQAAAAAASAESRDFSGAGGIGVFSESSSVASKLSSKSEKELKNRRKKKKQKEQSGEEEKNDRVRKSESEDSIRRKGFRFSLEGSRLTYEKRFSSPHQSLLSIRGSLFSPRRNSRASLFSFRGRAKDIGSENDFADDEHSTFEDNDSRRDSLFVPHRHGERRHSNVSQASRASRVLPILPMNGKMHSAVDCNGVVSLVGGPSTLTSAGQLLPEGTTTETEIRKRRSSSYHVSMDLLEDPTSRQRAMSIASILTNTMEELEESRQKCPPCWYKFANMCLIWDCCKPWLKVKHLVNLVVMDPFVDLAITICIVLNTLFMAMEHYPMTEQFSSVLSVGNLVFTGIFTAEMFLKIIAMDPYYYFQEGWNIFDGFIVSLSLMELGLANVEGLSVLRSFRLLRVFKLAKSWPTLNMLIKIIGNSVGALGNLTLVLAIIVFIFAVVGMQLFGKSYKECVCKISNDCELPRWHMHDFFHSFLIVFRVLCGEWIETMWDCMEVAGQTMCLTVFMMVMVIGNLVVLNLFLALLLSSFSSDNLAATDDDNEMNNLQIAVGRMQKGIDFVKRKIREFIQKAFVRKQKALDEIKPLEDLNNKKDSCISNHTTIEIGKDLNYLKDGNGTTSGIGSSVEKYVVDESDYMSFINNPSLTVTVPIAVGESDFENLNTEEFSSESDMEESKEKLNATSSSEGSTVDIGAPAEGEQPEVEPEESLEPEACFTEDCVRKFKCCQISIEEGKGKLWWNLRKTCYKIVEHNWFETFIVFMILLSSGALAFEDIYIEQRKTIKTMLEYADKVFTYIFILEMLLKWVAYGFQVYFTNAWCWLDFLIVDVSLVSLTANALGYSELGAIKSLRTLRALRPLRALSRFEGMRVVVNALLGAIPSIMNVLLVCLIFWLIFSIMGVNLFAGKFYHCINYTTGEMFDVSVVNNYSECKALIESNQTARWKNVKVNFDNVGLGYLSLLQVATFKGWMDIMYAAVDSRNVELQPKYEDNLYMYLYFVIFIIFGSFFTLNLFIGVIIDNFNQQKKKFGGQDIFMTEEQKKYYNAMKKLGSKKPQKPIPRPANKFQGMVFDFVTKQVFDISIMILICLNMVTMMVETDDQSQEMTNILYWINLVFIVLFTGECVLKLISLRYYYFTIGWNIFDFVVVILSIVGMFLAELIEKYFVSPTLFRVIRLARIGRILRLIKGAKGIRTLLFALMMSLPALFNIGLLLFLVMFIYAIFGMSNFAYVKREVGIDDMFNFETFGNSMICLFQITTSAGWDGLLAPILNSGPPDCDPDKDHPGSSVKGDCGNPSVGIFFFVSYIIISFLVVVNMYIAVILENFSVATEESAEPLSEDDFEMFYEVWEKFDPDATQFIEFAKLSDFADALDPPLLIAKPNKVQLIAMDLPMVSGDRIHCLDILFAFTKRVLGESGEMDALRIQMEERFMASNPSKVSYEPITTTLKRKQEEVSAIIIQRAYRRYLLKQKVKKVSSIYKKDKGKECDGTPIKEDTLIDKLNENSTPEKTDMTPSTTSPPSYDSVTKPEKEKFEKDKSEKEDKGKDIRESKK

In the case of O=C(Nc1ccc(C[C@@H]2CC[C@H]([C@H](O)c3ccccc3)N2)cc1)[C@@H]1CCc2cccc(=O)n21, the IC50 [1] is reported as greater than 30 µM, the IC50 [2] is reported as 7.1 µM and the remaining at 24 h [3] is reported as 72%. It also gave a remaining at 24 h [4] of 100%, an IC50 [5] greater than 20 µM and a max activation [6] of 94%. The half-life [7] was 3 h, the IC50 [8] was greater than 20 µM and the CLint scaled [9] was 137 mL/min/kg. It also gave an IC50 [10] greater than 30 µM, a remaining at 24 h [11] of 92% and a half-life [12] of 6 h. The EC50 [13] was 0.00062 µM, the remaining at 24 h [14] was 92% and the AUC/dose (Canis familiaris) was 1500 nM·h/mg/kg. The CLint scaled [15] was 13 mL/min/kg, the AUC/dose (Rattus norvegicus) was 110 nM·h/mg/kg and the bioavailability [16] was 21%. The IC50 [17] was 4.8 µM, the clearance [18] was 26 mL/min/kg and the CLint scaled [19] was 19 mL/min/kg. The bioavailability [20] was 100%, the AC50 [21] was 33 µM and the clearance [22] was 77 mL/min/kg. The CLint scaled [23] was 29 mL/min/kg.
